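Protocol summary: plate cells (96-well), add compound at 5 concentrations, incubate 48 h, interpolate endpoints linearly. At the GI50, growth is halved.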 Active and inactive are the calls of the source. No stated cut-off is given here; in the data, active = GI50 up to about 1.1 µM and inactive = higher. Where a SMILES comes first, the peptide text is derived from it.
Experiments:
Assay in all cases: growth of human tumour cells (NCI), 48 h
Malme-3M = test system: Malme-3M
UACC-257 = test system: UACC-257
HT-29 = test system: HT-29
A549 = test system: A549
LOX IMVI = test system: LOX IMVI
COLO 205 = test system: COLO 205
SW-620 = test system: SW-620
SK-MEL-28 = test system: SK-MEL-28
NCI-H23 = test system: NCI-H23
HCC 2998 = test system: HCC 2998
SF-268 = test system: SF-268
SN12C = test system: SN12C
SK-MEL-2 = test system: SK-MEL-2
MOLT-4 = test system: MOLT-4
HOP-92 = test system: HOP-92
KM-20L2 = test system: KM-20L2
ACHN = test system: ACHN
SNB-19 = test system: SNB-19
DMS-114 = test system: DMS-114
DMS-273 = test system: DMS-273

Structure (SMILES): CO/N=C1\CC(NC(=O)CNC(=O)OC(C)(C)C)c2ccsc21 (stereo not given)
- GI50 (Malme-3M): > 100 µM (inactive)
- GI50 (UACC-257): > 100 µM (inactive)
- GI50 (HT-29): > 100 µM (inactive)
- GI50 (A549): > 100 µM (inactive)
- GI50 (LOX IMVI): > 100 µM (inactive)
- GI50 (COLO 205): > 100 µM (inactive)
- GI50 (SW-620): > 100 µM (inactive)
- GI50 (SK-MEL-28): > 100 µM (inactive)
- GI50 (NCI-H23): > 100 µM (inactive)
- GI50 (HCC 2998): > 100 µM (inactive)
- GI50 (SF-268): > 100 µM (inactive)
- GI50 (SN12C): > 100 µM (inactive)
- GI50 (SK-MEL-2): > 100 µM (inactive)
- GI50 (MOLT-4): > 100 µM (inactive)
- GI50 (HOP-92): > 100 µM (inactive)

Structure (SMILES): COc1nc(NC2OCC(OC(C)=O)C(OC(C)=O)C2OC(C)=O)c(/N=C(\C)C(C)=O)c(=O)n1C (stereo not given)
- GI50 (Malme-3M): > 100 µM (inactive)
- GI50 (UACC-257): > 100 µM (inactive)
- GI50 (HT-29): > 100 µM (inactive)
- GI50 (A549): > 100 µM (inactive)
- GI50 (LOX IMVI): > 100 µM (inactive)
- GI50 (COLO 205): > 100 µM (inactive)
- GI50 (SW-620): > 100 µM (inactive)
- GI50 (SK-MEL-28): > 100 µM (inactive)
- GI50 (NCI-H23): > 100 µM (inactive)
- GI50 (KM-20L2): > 100 µM (inactive)
- GI50 (SF-268): > 100 µM (inactive)
- GI50 (SN12C): > 100 µM (inactive)
- GI50 (ACHN): > 100 µM (inactive)
- GI50 (SNB-19): > 100 µM (inactive)
- GI50 (SK-MEL-2): > 100 µM (inactive)
- GI50 (MOLT-4): > 100 µM (inactive)
- GI50 (HOP-92): > 100 µM (inactive)
- GI50 (DMS-114): > 100 µM (inactive)
- GI50 (DMS-273): > 100 µM (inactive)

Structure (SMILES): Nc1nc(=O)[nH]c2c1cnn2Cc1ccccc1
- GI50 (Malme-3M): > 100 µM (inactive)
- GI50 (UACC-257): > 100 µM (inactive)
- GI50 (HT-29): > 100 µM (inactive)
- GI50 (A549): > 100 µM (inactive)
- GI50 (LOX IMVI): > 100 µM (inactive)
- GI50 (COLO 205): > 100 µM (inactive)
- GI50 (SW-620): > 100 µM (inactive)
- GI50 (SK-MEL-28): 1.88 µM (inactive)
- GI50 (NCI-H23): 1.56 µM (inactive)
- GI50 (KM-20L2): 1.62 µM (inactive)
- GI50 (SF-268): > 100 µM (inactive)
- GI50 (SN12C): > 100 µM (inactive)
- GI50 (ACHN): > 100 µM (inactive)
- GI50 (SNB-19): > 100 µM (inactive)
- GI50 (SK-MEL-2): > 100 µM (inactive)
- GI50 (MOLT-4): > 100 µM (inactive)
- GI50 (HOP-92): > 100 µM (inactive)
- GI50 (DMS-114): > 100 µM (inactive)
- GI50 (DMS-273): > 100 µM (inactive)

Structure (SMILES): N#CCCN(CCC#N)c1ccc(/C=C(\NC(=O)c2cc([N+](=O)[O-])ccc2Cl)C(=O)Nc2ccccc2)cc1
- GI50 (A549): > 100 µM (inactive)
- GI50 (LOX IMVI): 21.4 µM (inactive)
- GI50 (COLO 205): 67.9 µM (inactive)
- GI50 (SK-MEL-28): > 100 µM (inactive)
- GI50 (NCI-H23): > 100 µM (inactive)
- GI50 (KM-20L2): > 100 µM (inactive)
- GI50 (SF-268): 30.8 µM (inactive)
- GI50 (SN12C): > 100 µM (inactive)
- GI50 (ACHN): 12.2 µM (inactive)
- GI50 (SNB-19): > 100 µM (inactive)
- GI50 (SK-MEL-2): > 100 µM (inactive)
- GI50 (MOLT-4): 32.2 µM (inactive)
- GI50 (HOP-92): > 100 µM (inactive)
- GI50 (DMS-114): 55 µM (inactive)
- GI50 (DMS-273): 54.2 µM (inactive)

Structure (SMILES): Cc1cc(O)nc(NN2C(Cl)C(=O)C2c2ccc([N+](=O)[O-])cc2)n1 (stereo not given)
- GI50 (UACC-257): 16 µM (inactive)
- GI50 (HT-29): 15.6 µM (inactive)
- GI50 (A549): 14.7 µM (inactive)
- GI50 (LOX IMVI): 5.96 µM (inactive)
- GI50 (COLO 205): 18.6 µM (inactive)
- GI50 (SW-620): 20.5 µM (inactive)
- GI50 (SK-MEL-28): 11.9 µM (inactive)
- GI50 (NCI-H23): 7.18 µM (inactive)
- GI50 (KM-20L2): 17.1 µM (inactive)
- GI50 (HCC 2998): 15.3 µM (inactive)
- GI50 (SF-268): 13.1 µM (inactive)
- GI50 (SN12C): 11.1 µM (inactive)
- GI50 (ACHN): 7.4 µM (inactive)
- GI50 (SNB-19): 15.3 µM (inactive)
- GI50 (SK-MEL-2): 6.07 µM (inactive)
- GI50 (MOLT-4): 8.13 µM (inactive)
- GI50 (HOP-92): 13.7 µM (inactive)
- GI50 (DMS-114): 8.07 µM (inactive)
- GI50 (DMS-273): 8.34 µM (inactive)

Structure (SMILES): CCOc1ccc(/C=C2\N=C(c3ccccc3)OC2=O)cc1
- GI50 (UACC-257): > 100 µM (inactive)
- GI50 (HT-29): > 100 µM (inactive)
- GI50 (A549): > 100 µM (inactive)
- GI50 (SW-620): > 100 µM (inactive)
- GI50 (SK-MEL-28): > 100 µM (inactive)
- GI50 (NCI-H23): > 100 µM (inactive)
- GI50 (HCC 2998): > 100 µM (inactive)
- GI50 (SF-268): > 100 µM (inactive)
- GI50 (ACHN): > 100 µM (inactive)
- GI50 (SNB-19): > 100 µM (inactive)
- GI50 (SK-MEL-2): > 100 µM (inactive)
- GI50 (MOLT-4): 8.71 µM (inactive)
- GI50 (HOP-92): > 100 µM (inactive)

Structure (SMILES): NCCCCC(N)C(=O)N1CCN(c2nc(N3CCCC3)c3nc(Cl)c(NCc4ccccc4)nc3n2)CC1 (stereo not given)
- GI50 (Malme-3M): 23 µM (inactive)
- GI50 (UACC-257): 18.2 µM (inactive)
- GI50 (HT-29): 18.9 µM (inactive)
- GI50 (A549): 18.5 µM (inactive)
- GI50 (LOX IMVI): 17.5 µM (inactive)
- GI50 (COLO 205): 17.4 µM (inactive)
- GI50 (SW-620): 19.6 µM (inactive)
- GI50 (SK-MEL-28): 20.7 µM (inactive)
- GI50 (NCI-H23): 19.4 µM (inactive)
- GI50 (HCC 2998): 19.1 µM (inactive)
- GI50 (SF-268): 20 µM (inactive)
- GI50 (SN12C): 18.4 µM (inactive)
- GI50 (ACHN): 19.1 µM (inactive)
- GI50 (SNB-19): 17.1 µM (inactive)
- GI50 (SK-MEL-2): 19 µM (inactive)
- GI50 (MOLT-4): 24.5 µM (inactive)
- GI50 (HOP-92): 10.3 µM (inactive)

Structure (SMILES): CCCCN1C(=O)NC(Cc2ccccc2)C1=O (stereo not given)
- GI50 (Malme-3M): > 100 µM (inactive)
- GI50 (UACC-257): > 100 µM (inactive)
- GI50 (HT-29): > 100 µM (inactive)
- GI50 (A549): > 100 µM (inactive)
- GI50 (LOX IMVI): > 100 µM (inactive)
- GI50 (SW-620): > 100 µM (inactive)
- GI50 (SK-MEL-28): > 100 µM (inactive)
- GI50 (NCI-H23): > 100 µM (inactive)
- GI50 (KM-20L2): > 100 µM (inactive)
- GI50 (HCC 2998): > 100 µM (inactive)
- GI50 (SF-268): > 100 µM (inactive)
- GI50 (SN12C): > 100 µM (inactive)
- GI50 (ACHN): > 100 µM (inactive)
- GI50 (SNB-19): > 100 µM (inactive)
- GI50 (SK-MEL-2): > 100 µM (inactive)
- GI50 (DMS-114): > 100 µM (inactive)
- GI50 (DMS-273): > 100 µM (inactive)

Structure (SMILES): COC1OCC(O)C(NC(=O)N(C)N=O)C1O (stereo not given)
- GI50 (Malme-3M): > 100 µM (inactive)
- GI50 (UACC-257): > 100 µM (inactive)
- GI50 (HT-29): > 100 µM (inactive)
- GI50 (A549): > 100 µM (inactive)
- GI50 (LOX IMVI): > 100 µM (inactive)
- GI50 (COLO 205): > 100 µM (inactive)
- GI50 (SW-620): > 100 µM (inactive)
- GI50 (SK-MEL-28): > 100 µM (inactive)
- GI50 (NCI-H23): > 100 µM (inactive)
- GI50 (KM-20L2): > 100 µM (inactive)
- GI50 (HCC 2998): > 100 µM (inactive)
- GI50 (SF-268): > 100 µM (inactive)
- GI50 (SN12C): > 100 µM (inactive)
- GI50 (SNB-19): > 100 µM (inactive)
- GI50 (SK-MEL-2): > 100 µM (inactive)
- GI50 (MOLT-4): > 100 µM (inactive)
- GI50 (HOP-92): > 100 µM (inactive)
- GI50 (DMS-114): > 100 µM (inactive)
- GI50 (DMS-273): > 100 µM (inactive)

Structure (SMILES): NC(=O)C1CCCN1C(=O)C(N)Cc1ccccc1 (stereo not drawn) (H-Phe-Pro-NH2; configuration not given here)
- GI50 (Malme-3M): > 100 µM (inactive)
- GI50 (UACC-257): > 10 µM (inactive)
- GI50 (HT-29): > 100 µM (inactive)
- GI50 (A549): > 100 µM (inactive)
- GI50 (LOX IMVI): > 100 µM (inactive)
- GI50 (COLO 205): > 100 µM (inactive)
- GI50 (SW-620): > 100 µM (inactive)
- GI50 (SK-MEL-28): > 100 µM (inactive)
- GI50 (HCC 2998): > 100 µM (inactive)
- GI50 (SF-268): > 100 µM (inactive)
- GI50 (ACHN): > 100 µM (inactive)
- GI50 (SNB-19): > 100 µM (inactive)
- GI50 (MOLT-4): > 100 µM (inactive)

Structure (SMILES): COC(=O)C[C@](O)(CCC(C)(C)O)C(=O)O[C@@H]1C(OC)=C[C@]23CCCN2CCc2cc4c(cc2[C@H]13)OCO4 [HARRINGTONINE]
- GI50 (Malme-3M): 0.0284 µM (active)
- GI50 (UACC-257): 0.158 µM (active)
- GI50 (HT-29): 0.0661 µM (active)
- GI50 (A549): 0.0579 µM (active)
- GI50 (LOX IMVI): 0.047 µM (active)
- GI50 (COLO 205): 0.0977 µM (active)
- GI50 (SW-620): 0.119 µM (active)
- GI50 (SK-MEL-28): 0.0593 µM (active)
- GI50 (NCI-H23): 0.0863 µM (active)
- GI50 (KM-20L2): 0.0843 µM (active)
- GI50 (HCC 2998): 0.0239 µM (active)
- GI50 (SF-268): 0.148 µM (active)
- GI50 (SN12C): 0.212 µM (active)
- GI50 (SNB-19): 0.0509 µM (active)
- GI50 (SK-MEL-2): 0.0989 µM (active)
- GI50 (MOLT-4): 0.0333 µM (active)
- GI50 (HOP-92): 0.164 µM (active)
- GI50 (DMS-114): 0.0152 µM (active)
- GI50 (DMS-273): 0.0288 µM (active)

Source: ChEMBL document CHEMBL1201862, “PubChem BioAssay data set” (2004)
